The results in this text go back to patent publication US20250136586A1, “Substituted 7-(Pyrimidin-4-yl)Quinolin-4(1H)-One Compounds as Cyclin Dependent Kinase Inhibitors” (BeiGene, Ltd., priority 2022, published 2025).

pIC50: −log10 of the molar value.

One assay has as its target CDK4/Cyclin D1 (Homo sapiens (Human), UniProt P11802). Description: TR-FRET kinase inhibition assay, CDK4/Cyclin D1. The following applies: 1 mM ATP, 0.15 μM Rb (Ser780)-biotin substrate, read-out: CDK4D1 IC50. It is filed as biochemical. The method, boiled down: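 Kinase was preincubated with compound for 60 min at room temperature, then reacted with ATP and Rb (Ser780)-biotin substrate for 120 min. IC50 came from a four-parameter logistic fit.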

The target in the next assay is CDK6/Cyclin D3 (Homo sapiens (Human), UniProt Q00534). Description: TR-FRET kinase inhibition assay, CDK6/Cyclin D3. The assay is classed as biochemical. Particulars: 1 mM ATP, 0.15 μM Rb (Ser780)-biotin substrate, read-out: CDK6D3 IC50. In a few lines:
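Kinase preincubated 60 min at room temperature with 0–10 μM compound; reaction started with 1 mM ATP and 0.15 μM Rb (Ser780)-biotin, run 120 min at room temperature in HEPES pH 7.0, 50 mM MgCl2. pRb detected by TR-FRET (665/620 nm ratio); IC50 from four-parameter logistic fit.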

Chain of CDK4/Cyclin D1 (P11802 whole entry): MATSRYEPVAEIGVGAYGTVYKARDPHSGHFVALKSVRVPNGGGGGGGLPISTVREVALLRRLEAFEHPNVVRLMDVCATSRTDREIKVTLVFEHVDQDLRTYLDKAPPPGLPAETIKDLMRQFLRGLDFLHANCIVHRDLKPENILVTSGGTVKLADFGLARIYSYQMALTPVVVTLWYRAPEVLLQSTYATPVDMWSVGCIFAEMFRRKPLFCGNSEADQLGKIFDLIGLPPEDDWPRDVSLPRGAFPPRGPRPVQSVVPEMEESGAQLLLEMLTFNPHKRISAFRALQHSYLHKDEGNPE
Chain of CDK4/Cyclin D1 (P24385 whole entry partner): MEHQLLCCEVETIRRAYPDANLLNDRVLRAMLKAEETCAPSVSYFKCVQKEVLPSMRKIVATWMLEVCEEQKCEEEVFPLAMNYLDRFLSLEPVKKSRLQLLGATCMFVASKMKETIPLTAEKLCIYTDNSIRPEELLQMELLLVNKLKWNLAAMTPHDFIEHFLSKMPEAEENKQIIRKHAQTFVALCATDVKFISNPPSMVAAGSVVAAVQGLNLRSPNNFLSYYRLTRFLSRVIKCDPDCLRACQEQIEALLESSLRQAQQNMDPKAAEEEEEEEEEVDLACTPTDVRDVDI
Chain of CDK6/Cyclin D3 (Q00534 whole entry): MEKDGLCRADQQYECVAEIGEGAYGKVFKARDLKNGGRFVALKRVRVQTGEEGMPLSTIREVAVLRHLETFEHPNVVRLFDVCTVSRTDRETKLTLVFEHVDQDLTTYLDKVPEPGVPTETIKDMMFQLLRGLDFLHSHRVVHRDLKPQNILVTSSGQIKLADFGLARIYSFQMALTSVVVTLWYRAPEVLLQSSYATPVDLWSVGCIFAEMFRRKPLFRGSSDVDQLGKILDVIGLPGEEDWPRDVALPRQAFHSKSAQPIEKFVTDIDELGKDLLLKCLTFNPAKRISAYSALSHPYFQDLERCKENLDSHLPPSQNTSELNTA
Chain of CDK6/Cyclin D3 (P30281 whole entry partner): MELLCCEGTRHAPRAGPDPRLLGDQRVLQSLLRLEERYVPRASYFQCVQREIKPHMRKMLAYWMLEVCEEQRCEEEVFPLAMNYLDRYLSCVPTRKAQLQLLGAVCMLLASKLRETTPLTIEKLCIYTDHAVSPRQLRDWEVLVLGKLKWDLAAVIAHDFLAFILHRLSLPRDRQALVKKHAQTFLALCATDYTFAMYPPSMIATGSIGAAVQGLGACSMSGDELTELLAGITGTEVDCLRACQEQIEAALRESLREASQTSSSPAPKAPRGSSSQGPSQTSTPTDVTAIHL

Consider `CC(C)n1c(CN2C[C@@H]3C[C@H]2CO3)cc(=O)c2ccc(-c3nc(N[C@@H]4CCOC[C@H]4O)ncc3F)cc21` [Example 34, 2-(((1S,4S)-2-oxa-5-azabicyclo[2.2.1]heptan-5-yl)methyl)-7-(5-fluoro-2-(((3S,4R)-3-hydroxytetrahydro-2H-pyran-4-yl)amino)pyrimidin-4-yl)-1-isopropylquinolin-4(1H)-one], for which the pIC50 is 8.00 at CDK4/Cyclin D1 and 6.37 on CDK6/Cyclin D3.
The corresponding values for `CC(C)n1c(CN2CCC[C@H](C#N)C2)cc(=O)c2ccc(-c3nc(N[C@@H]4CCOC[C@H]4O)ncc3F)cc21` [Example 89, (S)-1-((7-(5-fluoro-2-(((3S,4R)-3-hydroxytetrahydro-2H-pyran-4-yl)amino)pyrimidin-4-yl)-1-isopropyl-4-oxo-1,4-dihydroquinolin-2-yl)methyl)piperidine-3-carbonitrile] are 8.42 and 6.39.
The corresponding values for `CC(C)n1c(CN2CCCC2)cc(=O)c2ccc(-c3nc(N[C@@H]4CCOC[C@H]4O)ncc3F)cc21` [Example 100, 7-(5-fluoro-2-(((3S,4R)-3-hydroxytetrahydro-2H-pyran-4-yl)amino)pyrimidin-4-yl)-1-isopropyl-2-(pyrrolidin-1-ylmethyl)quinolin-4(1H)-one] are 7.72 and 6.12.
For the compound `CC(C)n1c(CNC2CC(F)(F)C2)cc(=O)c2ccc(-c3nc(N[C@@H]4CCOC[C@H]4O)ncc3F)cc21` [Example 77, 2-(((3,3-difluorocyclobutyl)amino)methyl)-7-(5-fluoro-2-(((3S,4R)-3-hydroxytetrahydro-2H-pyran-4-yl)amino)pyrimidin-4-yl)-1-isopropylquinolin-4(1H)-one], the pIC50 at CDK4/Cyclin D1 was 7.59; at CDK6/Cyclin D3, 6.22.
The corresponding values for `Cc1c(CN2CC3CCC(C2)O3)n(C(C)C)c2cc(-c3nc(N[C@@H]4CCOC[C@H]4O)ncc3F)ccc2c1=O` [Example 102, 2-((8-oxa-3-azabicyclo[3.2.1]octan-3-yl)methyl)-7-(5-fluoro-2-(((3S,4R)-3-hydroxytetrahydro-2H-pyran-4-yl)amino)pyrimidin-4-yl)-1-isopropyl-3-methylquinolin-4(1H)-one] are 7.82 and 6.48.
The corresponding values for `COc1cn(C(C)C)c2cc(-c3nc(N[C@@H]4CCOC[C@H]4O)ncc3F)ccc2c1=O` [Example 8, 7-(5-fluoro-2-(((3S,4R)-3-hydroxytetrahydro-2H-pyran-4-yl)amino)pyrimidin-4-yl)-1-isopropyl-3-methoxyquinolin-4(11H)-one] are 6.79 and 5.75.
For `CC(C)n1c(CN2CCC(F)(F)CC2)cc(=O)c2ccc(-c3nc(N[C@@H]4CCOC[C@H]4O)ncc3F)cc21` [Example 54, 2-((4,4-difluoropiperidin-1-yl)methyl)-7-(5-fluoro-2-(((3S,4R)-3-hydroxytetrahydro-2H-pyran-4-yl)<amino)pyrimidin-4-yl)-1-isopropylquinolin-4(1H)-one], in that order: 7.89 and 6.59.
Consider `CC(C)n1c(CNc2ccc(F)cc2)cc(=O)c2ccc(-c3nc(N[C@@H]4CCOC[C@H]4O)ncc3F)cc21` [Example 96, 7-(5-fluoro-2-(((3S,4R)-3-hydroxytetrahydro-2H-pyran-4-yl)amino)pyrimidin-4-yl)-2-(((4-fluorophenyl)amino)methyl)-1-isopropylquinolin-4(1H)-one], for which the pIC50 on CDK4/Cyclin D1 is 7.68; at CDK6/Cyclin D3, 6.56.
For `Cc1c(CN2[C@H](C)COC[C@@H]2C)n(C(C)C)c2cc(-c3nc(N[C@@H]4CCOC[C@H]4O)ncc3F)ccc2c1=O` [Example 72, 2-(((3R,5S)-3,5-dimethylmorpholino)methyl)-7-(5-fluoro-2-(((3S,4R)-3-hydroxytetrahydro-2H-pyran-4-yl)amino)pyrimidin-4-yl)-1-isopropyl-3-methylquinolin-4(1H)-one], in that order: 9.10 and 7.67.
For `CC(C)n1cc(C2CC2)c(=O)c2ccc(-c3nc(N[C@@H]4CCOC[C@H]4O)ncc3F)cc21` [Example 9, 3-cyclopropyl-7-(5-fluoro-2-(((3S,4R)-3-hydroxytetrahydro-2H-pyran-4-yl)amino)pyrimidin-4-yl)-1-isopropylquinolin-4(1H)-one], in that order: 7.23 and 6.23.
The corresponding values for `Cc1c(CN[C@H]2CCOC2)n(C(C)C)c2cc(-c3nc(N[C@@H]4CCOC[C@H]4O)ncc3F)ccc2c1=O` [Example 113, 7-(5-fluoro-2-(((3S,4R)-3-hydroxytetrahydro-2H-pyran-4-yl)amino)pyrimidin-4-yl)-1-isopropyl-3-methyl-2-((((S)-tetrahydrofuran-3-yl)amino)methyl)quinolin-4(1H)-one] are 7.77 and 6.18.
Take `CC(=O)NCc1cc(=O)c2ccc(-c3nc(N[C@@H]4CCOC[C@H]4O)ncc3F)cc2n1C(C)C` [Example 50, N-((7-(5-fluoro-2-(((3S,4R)-3-hydroxytetrahydro-2H-pyran-4-yl)amino)pyrimidin-4-yl)-1-isopropyl-4-oxo-1,4-dihydroquinolin-2-yl)methyl)acetamide]: the values for the pIC50 on CDK4/Cyclin D1 and on CDK6/Cyclin D3 were 7.80 and 6.16, respectively.
For the compound `CC(C)n1c(CN2CCCOCC2)cc(=O)c2ccc(-c3nc(N[C@@H]4CCOC[C@H]4O)ncc3F)cc21` [Example 79, 2-((1,4-oxazepan-4-yl)methyl)-7-(5-fluoro-2-(((3S,4R)-3-hydroxytetrahydro-2H-pyran-4-yl)amino)pyrimidin-4-yl)-1-isopropylquinolin-4(1H)-one], the pIC50 is 7.47 on CDK4/Cyclin D1 and 6.07 at CDK6/Cyclin D3.
The corresponding values for `CC(C)n1c(C2CCCN2)cc(=O)c2ccc(-c3nc(N[C@@H]4CCOC[C@H]4O)ncc3F)cc21` (stereo partly drawn) [Example 388, 7-(5-fluoro-2-(((3S,4R)-3-hydroxytetrahydro-2H-pyran-4-yl)amino)pyrimidin-4-yl)-1-isopropyl-2-(pyrrolidin-2-yl)quinolin-4(1H)-one] are 8.00 and 6.35.
Take `CC(C)n1c(CN2C3CCCC2CC(O)C3)cc(=O)c2ccc(-c3nc(N[C@@H]4CCOC[C@H]4O)ncc3F)cc21` (stereo partly drawn) [Example 90, 7-(5-fluoro-2-(((3S,4R)-3-hydroxytetrahydro-2H-pyran-4-yl)amino)pyrimidin-4-yl)-2-(((1R,3R,5S)-3-hydroxy-9-azabicyclo[3.3.1]nonan-9-yl)methyl)-1-isopropylquinolin-4(1H)-one]: the pIC50 on CDK4/Cyclin D1 was 8.24; on CDK6/Cyclin D3, 6.60.
The corresponding values for `Cc1c(C2CCN2C)n(C(C)C)c2cc(-c3nc(N[C@@H]4CCOC[C@H]4O)ncc3F)ccc2c1=O` (stereo partly drawn) [Example 387, 7-(5-fluoro-2-(((3S,4R)-3-hydroxytetrahydro-2H-pyran-4-yl)amino)pyrimidin-4-yl)-1-isopropyl-3-methyl-2-(1-methylazetidin-2-yl)quinolin-4(1H)-one] are 8.29 and 6.63.
The corresponding values for `CC(C)n1c(CN2CCCC(F)(F)C2)cc(=O)c2ccc(-c3nc(N[C@@H]4CCOC[C@H]4O)ncc3F)cc21` [Example 70, 2-((3,3-difluoropiperidin-1-yl)methyl)-7-(5-fluoro-2-(((3S,4R)-3-hydroxytetrahydro-2H-pyran-4-yl)amino)pyrimidin-4-yl)-1-isopropylquinolin-4(1H)-one] are 7.96 and 6.40.
The corresponding values for `CC(C)n1c(C(=O)N2CCOCC2)cc(=O)c2ccc(-c3nc(N[C@@H]4CCOC[C@H]4O)ncc3Cl)cc21` [Example 13, 7-(5-chloro-2-(((3S,4R)-3-hydroxytetrahydro-2H-pyran-4-yl)amino)pyrimidin-4-yl)-1-isopropyl-2-(morpholine-4-carbonyl)quinolin-4(1H)-one] are 7.03 and 6.27.
On to `Cc1c(C2CCCN2)n(C(C)C)c2cc(-c3nc(N[C@@H]4CCOC[C@H]4O)ncc3F)ccc2c1=O` (stereo partly drawn) [Example 389, 7-(5-fluoro-2-(((3S,4R)-3-hydroxytetrahydro-2H-pyran-4-yl)amino)pyrimidin-4-yl)-1-isopropyl-3-methyl-2-(pyrrolidin-2-yl)quinolin-4(1H)-one], for which the pIC50 is 8.80 at CDK4/Cyclin D1 and 6.66 on CDK6/Cyclin D3.
The corresponding values for `CC(C)n1c(CN2C3CCC2COC3)cc(=O)c2ccc(-c3nc(N[C@@H]4CCOC[C@H]4O)ncc3F)cc21` [Example 29, 2-((3-oxa-8-azabicyclo[3.2.1]octan-8-yl)methyl)-7-(5-fluoro-2-(((3S,4R)-3-hydroxytetrahydro-2H-pyran-4-yl)amino)pyrimidin-4-yl)-1-isopropylquinolin-4(1H)-one] are 7.72 and 6.44.
For `CC(C)n1c(CN2C[C@H]3C[C@@H]2CO3)cc(=O)c2ccc(-c3nc(N[C@@H]4CCOC[C@H]4O)ncc3F)cc21` [Example 33, 2-(((1R,4R)-2-oxa-5-azabicyclo[2.2.1]heptan-5-yl)methyl)-7-(5-fluoro-2-(((3S,4R)-3-hydroxytetrahydro-2H-pyran-4-yl)amino)pyrimidin-4-yl)-1-isopropylquinolin-4(1H)-one], in that order: 7.92 and 6.49.
The corresponding values for `Cc1c(CN2CCCC(F)(F)C2)n(C(C)C)c2cc(-c3nc(N[C@@H]4CCOC[C@H]4O)ncc3F)ccc2c1=O` [Example 116, 2-((3,3-difluoropiperidin-1-yl)methyl)-7-(5-fluoro-2-(((3S,4R)-3-hydroxytetrahydro-2H-pyran-4-yl)amino)pyrimidin-4-yl)-1-isopropyl-3-methylquinolin-4(1H)-one] are 8.41 and 6.76.
